Experimental data reported in patent publication US20080219962A1, “Method to Enhance the Bone Formation Activity of Bmp by Runx2 Acetylation” (BIORUNX CO., LTD., priority 2005, published 2008).
Numbered stars: 1 amine (or outer) side, 2 acyl side, 3 side chain; on linkers, the order of the positions; unused ones are H or OH. Bridge positions count the residues as written; N and C are the ends. Square brackets hold non-standard residues; d marks the D form. Peptide text beside a SMILES is read from it. I, II: the chains in the order shown. ξ: configuration not given here. hNle(7-SH) = O=C([C@H](CCCCCS[*:3])N[*:1])[*:2]; Ile(3ξ) = CCC(C)[C@H](N)C(=O)O

Legend:
[1] = tested on: Runx2; experiment: Runx2 acetylation: immunoprecipitation with anti-acetyl-lysine antibody, Western blot with anti-myc antibody; type: cell-based; conditions: C2C12 cells transfected with myc-tagged Runx2, treated with HDAC inhibitor; FIG. 13
Protocol: Following transfection, the C2C12 and 293 cells were lysed in ice-cold cell lysis buffer (25 mM HEPES (pH 7.5), 150 mM NaCl, 1% NP-40, 0.25% Na deoxycholate, 10% glycerol, 25 mM NaF, 1 mM EDTA, 1 mM Na3VO4, 250 μM phenylmethylsulfonyl fluoride, 10 μg/ml leupeptin, 10 μg/ml aprotinin) and cleared by centrifugation. The resulting supernatants were immunoprecipitated with the appropriate primary and secondary antibodies, and protein A- or protein G-Sepharose beads (Amersham) for 4 hours. All incubations were conducted at 4° C. The Sepharose beads were washed extensively and bound proteins were separated using SDS-PAGE, and then transferred to PVDF membranes. The membranes were incubated with the appropriate antibodies, washed, and then incubated with horseradish peroxidase-coupled secondary antibodies. After washing, the reactive proteins were visualized with an enhanced chemiluminescence (ECL) reagent (Amersham Biosciences).
For HDAC inhibitor treatments, both C2C12 and 293 cells were cultured in fresh medium for 1 day following transfection, and then treated with the inhibitors (Tricostatin A (TSA), CHAP and SCOP) for 16 h, at the specified concentrations according to the methods of Komatsu et al (Cancer Res. 61:4459-4466, 2001) and Nishino et al (Nishino N. et al., Org. Lett. 5: 5079-5082, 2003).
The level of Runx2 acetylation might be controlled by a dynamic equilibrium between acetylation and deacetylation. […] In the present invention, inhibitors of histone diacetylase (HDAC) deacetylating most proteins were treated to Runx2. Particularly, C2C12 cells, transfected with myc-tagged Runx2, were treated with HDAC inhibitors such as SCOP304, SCOP152, CHAP27, SAHA, MS-275, FK228, TrafoxinB and Oxamflatin according to the method of Komatsu et al (Cancer Res. 61:4459-4466, 2001). Immunoprecipitation was performed using anti-acetyl-lysine antibody, followed by Western blot analysis using anti-myc antibody.

[2] = tested on: C2C12 pluripotent mesenchymal precursor cells; experiment: Alkaline phosphatase (ALP) activity staining, early marker of osteoblast differentiation; type: cell-based; conditions: increasing inhibitor concentration in presence of low concentration of BMP-2 (30 ng/ml), FIG. 18
Protocol: Particularly, C2C12 pluripotent mesenchymal precursor cells were treated with each HDAC inhibitor and then fixed with 3.7% formaldehyde for 10 minutes, to which western blue substrate (Promega) was added to induce color development for 10 minutes. And alkaline phosphatase (ALP) activity, an early marker of osteoblast differentiation was measured by the active staining method (Katagiri et al., J. Cell Biol. Vol. 127, 1755-66, 1994). As a result, the treatment of HDAC inhibitors such as TSA, SAHA, MS-275, FK228, Oxamflatin, CHAP27, SCOP152, SCOP304 and SCOP402 caused increase of ALP activity (FIG. 18).

[3] = tested on: Runx2 transcriptional activity; experiment: pGL3-TβRE-luc luciferase reporter assay in 293 cells over-expressing Runx2; type: cell-based; conditions: 293 cells over-expressing Runx2 and pGL3-TβRE-luc reporter; FIG. 16
Protocol: (§1) For luciferase assay, cells were plated on a 24-well plate one day before transfection, followed by co-transfection with luciferase reporter plasmid and numbers of Runx2 constructs. 36 hours after transfection, cells were recovered and luciferase and β-galactosidase activities were measured in cell lysate by using Luciferase Reporter Assay Kit (Promega) using luminometer according to the manufacturer's recommendations. The pCMVβ-Gal (beta-Galactosidase, Clontech Laboratory) plasmid was included as an internal control to determine the efficiency of transfection.
To examine whether HDAC inhibitors, increasing the level of Runx2 acetylation, could promote the Runx2 transcriptional activity, 293 cells over-expressing Runx2 and pGL3-TβRE-luc reporter were treated with each HDAC inhibitor. The transcriptional activity of Runx2 was evaluated by luciferase report assay, which was performed according to the manufacturer (Promega)'s instructions. As a result, HDAC inhibitors, Tubacin, SAHA, MS-275, Trafoxin B, Oxamflatin, CHAP27, CHAP31, SCOP152, SCOP304 and SCOP402, increased transcriptional activity of Runx2 (FIG. 16). From the result, it was confirmed that HDAC inhibitors not only increase the level of Runx2 acetylation but also increase the Runx2 transcriptional activity.

[4] = tested on: periosteal bone formation; experiment: Periosteal bone formation after hypodermic injection into mice calvarias, H&E histostaining; type: in vivo; conditions: 10 μl of 60 μM injected hypodermically into calvarias, two weeks, FIG. 22
Protocol: To confirm the effect of HDAC inhibitors on bone formation, the present inventors investigated the effect of CHAP27, SCOP402 and SCOP304 on periosteal bone formation in rodent. Particularly, 10 μl of HDAC inhibitors (60 μM) were hypodermically injected into mice calvarias (Zhao et al., J. Biol. Chem., 279, 12854-12859, 2004). Two weeks later, the mice were sacrificed, followed by hematoxyline & eosine histostaining (Cell Biology. Second edition, Edited by Julio E. Celis. Published by Academic Press, 1994).

[5] = tested on: OC promoter; experiment: Osteocalcin (OC) promoter luciferase reporter assay in H1-127-21-2 cells; type: cell-based, mouse; conditions: H1-127-21-2 cells over-expressing pCS4-3Myc-Runx and pGL2-1050 OC-luc; FIG. 19
From the text: Full-length Runx2 (SEQ. ID. No 2) labeled with Myc or HA was inserted into a vector to construct CMV promoter-derived mammalian expression vectors pCS4-3Myc and pCS4-3HA (Jin et al., J Biol Chem. Vol. 279, 29409-17, 2004, Ogawa et al., Proc Natl Acad Sci USA. 1993 Vol. 90, 6859-63.). Mutations affecting the Runx2 acetylation site were introduced by PCR (Michaels A. Innis et al., PCR protocols: a guide to method and applications, Qcademic Press, Inc., 1990) and cloned into the pCS4-3Myc vector. The BMP receptor 1 (BMPR1) and HA-p300 expression vectors were obtained from M. Ewen (Dana-Farber Cancer Institute, Harvard Medical School, Boston) (Genes Dev. Vol. 8, 869-84, 1994). The expression plasmids for the myc-HDAC series were cloned into pCS4-3Myc. The luciferase reporter plasmid, pGL3-TbRE, contains two copies of TbRE (originally identified in the immunoglobulin Cα promoter) (Lee, K. S., et al., Mol. Cell. Biol. 20:8783-8792, 2000; pGL3 is product of Promega). […]
as §1, with “The pCMVβ-Gal (beta-Galactosidase, Clontech Laboratory) plasmid was included as an internal control to determine the efficiency of transfection.” left out

C/C=C1\NC(=O)[C@H]2CSSCC/C=C/[C@H](CC(=O)N[C@H](C(C)C)C(=O)N2)OC(=O)[C@H](C(C)C)NC1=O [FK228]
Runx2 acetylation [1]: increased | ALP activity [2]: increase

Nc1ccccc1NC(=O)c1ccc(CNC(=O)OCc2cccnc2)cc1 [MS-275, carbamate, [[4-[[(2-aminophenyl)amino]carbonyl]phenyl]methyl]-, 3-pyridinemethyl ester]
transcriptional activity of Runx2 (luciferase reporter) [3]: increased | Runx2 acetylation [1]: increased | ALP activity [2]: increase

O=C(CCCCCCC(=O)Nc1ccccc1)NO [SAHA, octanediamide, N-hydroxy-N′-phenyl-]
transcriptional activity of Runx2 (luciferase reporter) [3]: increased | Runx2 acetylation [1]: increased | ALP activity [2]: increase

CCC(C)[C@@H]1NC(=O)[C@H]2CCCN2C(=O)[C@H](CCCCCSSCCCCC[C@@H]2NC(=O)[C@H]3CCCN3C(=O)[C@H](C(C)CC)NC(=O)[C@@H](Cc3ccc(OC)cc3)NC2=O)NC(=O)[C@@H](Cc2ccc(OC)cc2)NC1=O (stereo partly drawn) [SCOP304, cyclo(L-Am7 (−)-D-Tyr(Me)-L-Ile-D-Pro)dimer] (I: cyclo([Ile(3ξ)][dP][hNle(7-SH)][dY](Me)) / II: cyclo([Ile(3ξ)][dY](Me)[hNle(7-SH)][dP]); disulfide I:3-II:3)
bone formation [4]: remarkably enhanced | transcriptional activity of Runx2 (luciferase reporter) [3]: increased | Runx2 acetylation [1]: increased | OC promoter activation over the activation observed for Runx2 alone [5]: 2-4 fold | ALP activity [2]: increase

CC(/C=C/C(=O)NO)=C\[C@@H](C)C(=O)c1ccc(N(C)C)cc1 [TSA, 2,4-heptadieneamide, 7-[4-(dimethylamino)phenyl]-N-hydroxy-4,6-dimethyl-7-oxo-, (2E,4E,6R)-]
ALP activity [2]: increase

O=C(CCCCCCC(=O)Nc1ccc([C@H]2O[C@@H](CSc3nc(-c4ccccc4)c(-c4ccccc4)o3)C[C@@H](c3ccc(CO)cc3)O2)cc1)NO [Tubacin]
transcriptional activity of Runx2 (luciferase reporter) [3]: increased

Oxamflatin
transcriptional activity of Runx2 (luciferase reporter) [3]: increased | Runx2 acetylation [1]: increased | ALP activity [2]: increase

cyclo(-L-Am7-D-Tyr(Me)-L-Ile-D-Pro-) [SCOP152]
transcriptional activity of Runx2 (luciferase reporter) [3]: increased | Runx2 acetylation [1]: increased | ALP activity [2]: increase

cyclo(-L-Asu(NHOH)-D-Tyr(Me)-L-Ile-D-Pro-) [CHAP31]
transcriptional activity of Runx2 (luciferase reporter) [3]: increased
